Experimental data as given in the supplement of paper PMC11562712.

Experiment: first-order primary biodegradation rate constant k (sorption-corrected, fDis-corrected) (d-1); higher = faster biodegradation
How it was run: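 Each of 129 compounds was spiked at 1 μg L^–1 into river water containing sieved sediment (50 g wet solid L^–1) from German, Swiss, Spanish and Greek river segments, then shaken in darkness at 20.5 ± 3.5 °C, the river water temperature, for 10 days in three replicates. Filtered samples of the water phase were measured by ultra-high-performance liquid chromatography coupled to Orbitrap tandem mass spectrometry. First-order k values came from log peak-area regression, corrected for sorption-control dissipation under azide sterilisation and divided by dissolved fraction, and invalid fits were left out.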

Cc1cccc(Nc2ccccc2C(=O)O)c1C [Mefenamic acid]
Conditions | first-order primary biodegradation rate constant k
river segment: Germany (DE) H_Contam, incubation temperature 24 °C | 0.0696
river segment: Germany (DE) T_Contam, incubation temperature 24 °C | 0.497
river segment: Germany (DE) T_Pris, incubation temperature 24 °C | 0.23
river segment: Greece (EL) A_Contam, incubation temperature 19 °C | 0.235
river segment: Spain (ES) C_Contam, incubation temperature 24 °C | 0.0725
river segment: Spain (ES) F_Pris_Salt, incubation temperature 24 °C | 0.804
river segment: Switzerland (CH) C_Contam, incubation temperature 17 °C | 0.174
river segment: Switzerland (CH) U_Contam, incubation temperature 17 °C | 1.41
river segment: Switzerland (CH) U_Pris, incubation temperature 17 °C | 1.7
